Format in all cases: biochemical
Assay [1] concerns the target T1, CYP1A2 (Homo sapiens, UniProt P05177).
T1 sequence (P05177 2-516): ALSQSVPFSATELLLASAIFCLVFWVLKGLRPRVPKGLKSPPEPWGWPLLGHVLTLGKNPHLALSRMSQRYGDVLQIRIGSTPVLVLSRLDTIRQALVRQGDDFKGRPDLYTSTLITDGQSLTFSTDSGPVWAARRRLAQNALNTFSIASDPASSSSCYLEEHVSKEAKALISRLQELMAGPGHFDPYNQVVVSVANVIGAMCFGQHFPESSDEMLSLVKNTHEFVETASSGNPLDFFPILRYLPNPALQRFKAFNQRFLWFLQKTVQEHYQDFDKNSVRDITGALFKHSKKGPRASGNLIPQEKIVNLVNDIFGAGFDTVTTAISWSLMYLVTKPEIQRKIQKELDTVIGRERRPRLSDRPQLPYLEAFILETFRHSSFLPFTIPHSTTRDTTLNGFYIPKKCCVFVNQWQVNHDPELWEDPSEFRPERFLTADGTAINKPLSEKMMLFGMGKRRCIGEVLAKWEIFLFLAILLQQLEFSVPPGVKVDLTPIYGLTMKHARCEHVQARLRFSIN
Description: recombinant CYP inhibition, fluorescence.

In assay [2] the target is CYP3A4 (Homo sapiens, UniProt P08684). Description: recombinant CYP inhibition, fluorescence.
The target in assay [3] is CYP2D6 (Homo sapiens, UniProt P10635). As to the kind of experiment: recombinant CYP inhibition, fluorescence.
Assay [4] has as its target CYP2C9 (Homo sapiens, UniProt P11712). As to the kind of experiment: recombinant CYP inhibition, fluorescence.
The target of assay [5] is human topoisomerase IIα (Homo sapiens, UniProt P11388). As to the kind of experiment: human topoisomerase IIα decatenation assay.
Assay [6] concerns the target CYP2C19 (Homo sapiens, UniProt P33261). As to the kind of experiment: recombinant CYP inhibition, fluorescence.

Chain of human topoisomerase IIα (P11388 whole entry): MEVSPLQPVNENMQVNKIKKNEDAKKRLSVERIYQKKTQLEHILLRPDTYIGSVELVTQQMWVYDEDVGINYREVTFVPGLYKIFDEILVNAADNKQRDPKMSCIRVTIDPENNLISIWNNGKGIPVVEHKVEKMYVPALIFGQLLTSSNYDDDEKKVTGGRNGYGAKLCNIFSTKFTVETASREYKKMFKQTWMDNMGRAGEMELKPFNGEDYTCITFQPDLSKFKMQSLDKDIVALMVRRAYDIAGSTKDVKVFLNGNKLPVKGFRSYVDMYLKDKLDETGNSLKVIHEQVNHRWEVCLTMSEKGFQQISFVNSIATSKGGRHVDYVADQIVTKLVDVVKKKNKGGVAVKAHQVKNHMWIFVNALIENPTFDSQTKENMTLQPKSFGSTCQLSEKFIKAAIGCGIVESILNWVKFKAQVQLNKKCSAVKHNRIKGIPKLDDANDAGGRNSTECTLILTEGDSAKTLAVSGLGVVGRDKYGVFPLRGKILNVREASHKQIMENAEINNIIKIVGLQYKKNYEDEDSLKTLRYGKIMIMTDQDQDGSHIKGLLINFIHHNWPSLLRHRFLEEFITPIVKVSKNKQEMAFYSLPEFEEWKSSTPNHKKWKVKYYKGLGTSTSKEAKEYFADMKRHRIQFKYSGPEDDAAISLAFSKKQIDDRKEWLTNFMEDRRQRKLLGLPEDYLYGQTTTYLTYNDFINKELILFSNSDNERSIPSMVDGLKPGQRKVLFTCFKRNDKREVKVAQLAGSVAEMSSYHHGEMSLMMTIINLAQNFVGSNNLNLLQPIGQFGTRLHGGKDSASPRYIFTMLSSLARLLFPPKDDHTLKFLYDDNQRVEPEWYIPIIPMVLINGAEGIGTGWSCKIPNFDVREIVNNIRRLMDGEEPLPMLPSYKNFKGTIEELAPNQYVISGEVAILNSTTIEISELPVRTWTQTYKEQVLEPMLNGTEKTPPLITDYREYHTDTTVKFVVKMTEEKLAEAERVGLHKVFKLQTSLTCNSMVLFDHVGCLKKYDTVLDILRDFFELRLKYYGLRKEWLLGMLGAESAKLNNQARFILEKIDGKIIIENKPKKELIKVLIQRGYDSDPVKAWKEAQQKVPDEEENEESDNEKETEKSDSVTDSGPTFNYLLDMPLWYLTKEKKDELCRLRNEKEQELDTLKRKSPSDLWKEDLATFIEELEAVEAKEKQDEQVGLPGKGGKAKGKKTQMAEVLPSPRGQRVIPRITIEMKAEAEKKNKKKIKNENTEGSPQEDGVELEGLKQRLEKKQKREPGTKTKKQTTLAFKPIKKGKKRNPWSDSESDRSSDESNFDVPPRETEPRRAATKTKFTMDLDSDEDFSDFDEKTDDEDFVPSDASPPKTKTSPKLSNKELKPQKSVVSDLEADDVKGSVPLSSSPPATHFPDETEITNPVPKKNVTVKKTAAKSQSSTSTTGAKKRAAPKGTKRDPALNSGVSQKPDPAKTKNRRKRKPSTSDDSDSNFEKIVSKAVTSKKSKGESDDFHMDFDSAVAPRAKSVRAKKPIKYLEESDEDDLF
Chain of CYP2C19 (P33261 whole entry): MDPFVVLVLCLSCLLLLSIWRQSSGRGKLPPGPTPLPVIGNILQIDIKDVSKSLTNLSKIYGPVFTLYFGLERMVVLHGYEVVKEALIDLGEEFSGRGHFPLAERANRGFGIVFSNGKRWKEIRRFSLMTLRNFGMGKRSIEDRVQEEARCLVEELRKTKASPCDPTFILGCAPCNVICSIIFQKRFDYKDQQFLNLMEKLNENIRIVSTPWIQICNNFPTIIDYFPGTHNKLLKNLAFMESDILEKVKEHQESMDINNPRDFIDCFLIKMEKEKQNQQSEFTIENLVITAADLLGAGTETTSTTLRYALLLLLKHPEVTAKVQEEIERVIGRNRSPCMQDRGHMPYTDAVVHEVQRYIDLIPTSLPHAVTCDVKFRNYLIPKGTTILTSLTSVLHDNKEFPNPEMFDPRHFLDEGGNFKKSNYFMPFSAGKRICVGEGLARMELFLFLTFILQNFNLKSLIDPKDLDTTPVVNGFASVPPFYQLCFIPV
Chain of CYP3A4 (P08684 2-503): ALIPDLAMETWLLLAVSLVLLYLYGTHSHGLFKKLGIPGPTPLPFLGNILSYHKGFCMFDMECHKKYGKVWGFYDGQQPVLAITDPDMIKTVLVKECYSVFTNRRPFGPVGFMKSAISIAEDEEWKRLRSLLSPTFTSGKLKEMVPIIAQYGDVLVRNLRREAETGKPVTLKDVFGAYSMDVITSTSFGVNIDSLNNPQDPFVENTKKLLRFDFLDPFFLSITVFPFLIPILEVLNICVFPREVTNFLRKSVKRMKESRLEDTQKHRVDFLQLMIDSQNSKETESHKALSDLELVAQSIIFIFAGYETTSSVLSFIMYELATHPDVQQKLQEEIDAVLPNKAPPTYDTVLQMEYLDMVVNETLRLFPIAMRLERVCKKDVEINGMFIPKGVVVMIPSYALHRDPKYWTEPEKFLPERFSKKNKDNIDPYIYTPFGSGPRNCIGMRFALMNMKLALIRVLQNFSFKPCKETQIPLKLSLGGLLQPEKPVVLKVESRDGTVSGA
Chain of CYP2C9 (P11712 whole entry): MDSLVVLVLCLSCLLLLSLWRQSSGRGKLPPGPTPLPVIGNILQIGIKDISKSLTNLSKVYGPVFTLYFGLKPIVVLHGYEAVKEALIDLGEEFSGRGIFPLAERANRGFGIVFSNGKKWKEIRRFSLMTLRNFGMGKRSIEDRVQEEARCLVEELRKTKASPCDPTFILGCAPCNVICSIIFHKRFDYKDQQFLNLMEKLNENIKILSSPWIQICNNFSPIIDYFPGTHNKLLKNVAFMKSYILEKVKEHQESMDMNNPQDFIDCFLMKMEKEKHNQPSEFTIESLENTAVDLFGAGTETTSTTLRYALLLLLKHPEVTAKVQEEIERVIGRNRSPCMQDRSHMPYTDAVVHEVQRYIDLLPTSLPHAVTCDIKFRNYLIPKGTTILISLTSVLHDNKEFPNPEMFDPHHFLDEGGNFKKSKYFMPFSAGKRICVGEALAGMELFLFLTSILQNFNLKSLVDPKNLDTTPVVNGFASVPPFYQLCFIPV
Chain of CYP2D6 (P10635 whole entry): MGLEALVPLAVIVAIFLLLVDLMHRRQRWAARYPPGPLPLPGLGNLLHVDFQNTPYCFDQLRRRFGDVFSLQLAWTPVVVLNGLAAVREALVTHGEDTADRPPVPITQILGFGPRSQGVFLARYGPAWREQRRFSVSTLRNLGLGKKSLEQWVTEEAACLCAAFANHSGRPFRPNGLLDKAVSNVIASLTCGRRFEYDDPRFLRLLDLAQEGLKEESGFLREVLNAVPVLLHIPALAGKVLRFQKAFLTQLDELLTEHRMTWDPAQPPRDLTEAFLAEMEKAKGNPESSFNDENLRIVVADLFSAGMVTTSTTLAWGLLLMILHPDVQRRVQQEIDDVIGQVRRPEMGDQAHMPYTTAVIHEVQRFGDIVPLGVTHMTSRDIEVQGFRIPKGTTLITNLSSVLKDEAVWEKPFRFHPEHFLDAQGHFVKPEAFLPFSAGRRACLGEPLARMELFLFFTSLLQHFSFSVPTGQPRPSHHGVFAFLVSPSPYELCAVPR

Turning to `CCNC(=O)Nc1nc2c(F)c(-c3cnc(N4CCC(C(=O)O)CC4)nc3)cc(-c3ccccn3)c2s1` [RBx 10080758], the IC50 (commonly the concentration at which inhibition is half-maximal) is more than 10 µM in assay [1]; more than 10 µM in assay [2]; more than 10 µM in assay [3]; more than 10 µM in assay [4]; more than 959 µM in assay [5]; more than 10 µM in assay [6].

With `CCNC(=O)Nc1nc2c(F)c(-c3ccc(COP(=O)(O)O)nc3)cc(-c3ccccn3)c2s1` [RBx 10115912], the IC50 in assay [1] is more than 10 µM; in assay [2], more than 10 µM; in assay [3], more than 10 µM; in assay [4] it was more than 10 µM; in assay [5], more than 993 µM; in assay [6] it was more than 10 µM.
